Read-outs that look alike come from different tables or passages of the source.
What was measured:
CYP1A2 = target: T1, CYP1A2 (Homo sapiens, UniProt P05177); experiment: Intrinsic clearance in human liver microsomes with CYP inhibitors; type: in vitro ADME
T1 construct: from tissue; host or cells: human liver microsomes
T1 sequence (P05177 1-516): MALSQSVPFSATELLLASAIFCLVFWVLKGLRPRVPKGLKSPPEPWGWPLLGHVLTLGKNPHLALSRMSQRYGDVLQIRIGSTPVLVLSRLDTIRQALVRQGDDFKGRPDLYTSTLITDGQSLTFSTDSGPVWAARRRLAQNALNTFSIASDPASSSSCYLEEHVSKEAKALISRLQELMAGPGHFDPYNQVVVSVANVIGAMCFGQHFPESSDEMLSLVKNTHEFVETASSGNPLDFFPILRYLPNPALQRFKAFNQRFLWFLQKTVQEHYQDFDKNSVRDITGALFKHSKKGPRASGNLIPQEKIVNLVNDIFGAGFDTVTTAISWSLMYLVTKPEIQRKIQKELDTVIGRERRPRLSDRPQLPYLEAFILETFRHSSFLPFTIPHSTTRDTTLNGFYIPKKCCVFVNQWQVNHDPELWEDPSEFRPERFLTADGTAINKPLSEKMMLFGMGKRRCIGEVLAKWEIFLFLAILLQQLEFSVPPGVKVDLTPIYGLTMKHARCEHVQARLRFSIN
Description: The elimination of the PBPK model consisted of enzyme kinetic and renal clearance (Table 1). Intrinsic clearances (CLint) of tegoprazan by various CYPs were determined by an in vitro study that measured the fraction of CLint inhibited by adding the inhibitors of CYP1A2, CYP2C9, CYP2C19, CYP2D6, and CYP3A to human liver microsomes (in-house data). Based on the in vitro data, an in vitro to in vivo extrapolation (IVIVE) approach was used to estimate the in vivo CLint by each CYP enzyme. Renal clearance as an additional clearance was used from the result of a single-oral-dose study of tegoprazan 100 mg.

[1] = Blood:plasma partition ratio and fraction unbound in plasma, experimental data; type: in vitro ADME
[2] = Physicochemical properties (log P, pKa), experimental data; details: for pKa: ampholyte
Source text: A PBPK model of tegoprazan was built and verified by both the bottom-up approach using in vitro data for maintaining a mechanistic PBPK structure and the top-down approach using clinical PK results for maintaining a descriptive structure (Figure 1). The initial PBPK model of tegoprazan was constructed using physicochemical properties (e.g., molecular weight, log P, pKa), in vitro data (e.g., permeability, intrinsic clearance), and in vivo data (e.g., renal clearance) provided by HK inno.N Corp. (Seoul, Korea). The commercially available software SimCYP simulator v19 (SimCYP Limited, Certara, Sheffield, UK) was used to build the PBPK model and to generate the PK simulations. The PBPK-model-predicted PK profiles and parameters of tegoprazan were compared with the observed PK profiles and parameters from previously conducted clinical studies (Supplementary Table S1). The specific model configuration related to absorption, distribution, and elimination is described below.

[3] = cited from earlier work
[4] = cited from earlier work; for AUCτ Obs. / Cmax Obs.: mean; for Tmax Obs.: median
gastric H^+/K^+-ATPase = system: gastric H^+/K^+-ATPase; parameters: method as in PMID 31437865; details: from 50 mg to 400 mg; cited from earlier work
[5] = cited from earlier work; for AUCτ Obs. / Cmax Obs. / AUCinf Obs.: mean; for Tmax Obs.: median
[6] = Parallel artificial membrane permeability assay (PAMPA); type: in vitro ADME
Source text: The advanced dissolution, absorption, and metabolism model was used. The unbound fraction of the drug in enterocytes (fuGut) and the human jejunum effective permeability (Peff,man) were predicted because these values were not routinely measured (Table 1). The value of fuGut was predicted using the values of in vitro parameters, such as the octanol:water partition coefficient, the fraction of intracellular water, and other distribution-related parameters (in-house data). The value of Peff,man was predicted using parallel artificial membrane permeation assay permeability (in-house data).

[7] = Phase 1 clinical PK studies of tegoprazan alone in healthy male adults (observed); type: in vivo; details: human, urine and plasma, single oral dose 100 mg, read-out: CLR (renal clearance) (converted)
Description: The established PBPK model was verified by applying the predicted values to the clinical PK data from various phase 1 studies conducted with healthy male adults (Supplementary Table S2). Brief information about the clinical studies follows: study 1 (single-dose PK study), a single dose of tegoprazan 25 mg and 50 mg was orally administered; study 2 (food effect study), a single dose of tegoprazan 50 mg was orally administered in both fasted and fed states; study 3 (bioequivalence study of two formulations), a single dose of two different formulations with tegoprazan 100 mg was orally administered; study 4 (multiple-dose PK study), multiple doses of tegoprazan 50 mg and 100 mg were orally administered once daily for 7 days; study 5 (DDI study with clarithromycin), multiple doses of tegoprazan 200 mg were orally administered once daily with or without multiple doses of clarithromycin 500 mg twice daily for 5 days; and study 6 (DDI study with clarithromycin and amoxicillin), multiple doses of tegoprazan 100 mg were orally administered twice daily with or without multiple doses of clarithromycin/amoxicillin 500/1000 mg twice daily for 5 days or 7 days.

[8] = tegoprazan 100 mg BID + clarithromycin 500 mg BID + amoxicillin 1000 mg BID, 7 days
[9] = tegoprazan 100 mg BID alone for 4 days, once on day 5
[10] = tegoprazan 200 mg QD + clarithromycin 500 mg BID for 5 days, ref NCT02052336
[11] = tegoprazan 200 mg QD alone for 5 days, ref NCT02052336
[12] = multiple oral doses 50 mg once daily for 7 days, ref NCT03009760
[13] = multiple oral doses 100 mg once daily for 7 days, ref NCT03009760
[14] = single oral dose 25 mg, ref NCT03530228
[15] = single oral dose 50 mg, NCT03530228

With `Cc1nc2cc(C(=O)N(C)C)cc(O[C@H]3CCOc4cc(F)cc(F)c43)c2[nH]1` [tegoprazan] the “CYP1A2 CLint” value (CYP1A2) was 2.5 μL/min/mg of protein, the blood plasma ratio ([1]; blood and plasma, read-out: B/P (blood:plasma partition ratio)) was 0.868 and the fraction unbound ([1]; plasma, read-out: fu (fraction unbound in plasma)) was 0.124. It also gave a pKa ([2]; read-out: pKa 1) of 5.2, a pKa ([2]; read-out: pKa 2) of 12 and a logP ([2]; octanol/water, read-out: Log P (octanol:water partition coefficient)) of 3. The apparent clearance [3] was “approximately 17.6 L/h”, the mean half-life [3] was 3.7 to 6.2 h and the volume of distribution [3] was about 107.9 L. The safety and tolerability ([3]; healthy adults, up to 400 mg single dose and 200 mg multiple doses) was “safe and tolerable”, the “increase of systemic exposure with dose” value ([3]; phase 1 clinical study, healthy adults) was “dose proportional” and the “Cmax when administered with food” value ([3]; previous studies) was “decreased”. For the same compound, the “time to reach Cmax when administered with food” value ([3]; previous studies) was “delayed”, the “DDI between tegoprazan and amoxicillin” value [4] was “negligible” and the “apparent clearance, DDI study result” value ([4]; co-administration of clarithromycin) was 6.6 L/h. The “AUCτ Obs.” value [4, 8] was 16,045.0 μg∙h/L, the “Cmax Obs.” value [4, 8] was 2285.6 ng/mL and the “Tmax Obs.” value [4, 8] was 2.50 h. The “AUCτ Obs.” value [4, 9] was 5955.9 µg·h/L, the “Cmax Obs.” value [4, 9] was 1018.4 ng/mL and the “Tmax Obs.” value [4, 9] was 1.30 h. For the same compound, the “AUCτ Obs.” value [4, 10] was 27,796.4 μg∙h/L, the “Cmax Obs.” value [4, 10] was 3096.0 ng/mL and the “Tmax Obs.” value [4, 10] was 1.50 h. For the same compound, the “AUCτ Obs.” value [4, 11] was 10,817.6 μg∙h/L, the “Cmax Obs.” value [4, 11] was 1868.6 ng/mL and the “Tmax Obs.” value [4, 11] was 1.00 h. For the same compound, the “apparent clearance, DDI study result” value ([4]; tegoprazan alone) was 17.7 L/h, the “magnitude of acid suppression” value (gastric H^+/K^+-ATPase) was “increases in a dose-dependent manner” and the “AUCτ Obs.” value [5, 12] was 2954.9 ng·h/mL. For the same compound, the “Cmax Obs.” value [5, 12] was 842.8 ng/mL, the “Tmax Obs.” value [5, 12] was 1.00 h and the “AUCτ Obs.” value [5, 13] was 4768.4 ng·h/mL. The “Cmax Obs.” value [5, 13] was 1149.7 ng/mL, the “Tmax Obs.” value [5, 13] was 1.25 h and the “AUCinf Obs.” value [5, 14] was 1340.0 ng·h/mL. For the same compound, the “Cmax Obs.” value [5, 14] was 335.6 ng/mL, the “Tmax Obs.” value [5, 14] was 0.75 h and the “AUCinf Obs.” value [5, 15] was 2903.0 ng·h/mL. For the same compound, the “Cmax Obs.” value [5, 15] was 759.1 ng/mL, the “Tmax Obs.” value [5, 15] was 1.00 h and the “AUCinf Obs.” value ([5]; single oral dose 100 mg) was 5998.1 ng·h/mL. The “Cmax Obs.” value ([5]; single oral dose 100 mg) was 1434.5 ng/mL, the “Tmax Obs.” value ([5]; single oral dose 100 mg) was 1.00 h and the Papp [6] was 68.4 ×10⁻⁶ cm/s. The CL renal [7] was 21.8 mL/min.

— article PMC8464955, “Prediction of Drug–Drug Interaction Potential of Tegoprazan Using Physiologically Based Pharmacokinetic Modeling and Simulation” (Pharmaceutics, 2021)
